Several values for one entry are separate records, joined by “and”; a condition that tells them apart may be missing. Equal values may be shown once. Read-outs that look alike come from different tables or passages of the source.
Experiments:
NCI-H358 = experiment: Anti-proliferation assay (CellTiter-Glo 2.0), combination index, NCI-H358; format: cell-based
Method: (§1) Cell lines were obtained from ATCC or Health Science Research Resources Bank.
(§2) Each cell lines were collected by ordinary method, then suspended in indicated medium containing 10% fetal bovine serum in table 3. The number of cells seeded per well was set to 500 cells/20 μL. […] The concentration of each anti-cancer reagents set to 8 concentrations including 0 nM. After adding the medicine to the cells, the cells were further incubated at 37° C. for 3 days under 5% CO2. Cell survival rates were calculated by adding 20 μL of CellTiter-Glo(registered trademark) 2. 0 (Promega) solution to each well, incubating the cells at room temperature for 10 minutes, and then measuring the chemiluminescence intensity of each well using a plate reader (ARVO).
(§3) A combination index (CI) value at each combined concentration of the medicines was determined.

RT4 = experiment: Anti-proliferation assay (CellTiter-Glo 2.0), combination index, RT4; format: cell-based
Method: as §1, §2, §3

[1] = Compound 1 13.7 + combination drug 12.3 nmol/L (1:0.9)
[2] = Compound 1 41.2 + combination drug 37.0 nmol/L (1:0.9)
[3] = Compound 1 123 + combination drug 111 nmol/L (1:0.9)
[4] = Compound 1 370 + combination drug 333 nmol/L (1:0.9)
[5] = Compound 1 1110 + combination drug 1000 nmol/L (1:0.9)
[6] = Compound 1 1.52 + combination drug 1.37 nmol/L (1:0.9)
[7] = Compound 1 4.57 + combination drug 4.12 nmol/L (1:0.9)
[8] = Compound 1 41.2 + combination drug 3330 nmol/L (1:81)
[9] = Compound 1 123 + combination drug 10000 nmol/L (1:81)
[10] = Compound 1 13.7 + combination drug 1.37 nmol/L (1:0.1)
[11] = Compound 1 41.2 + combination drug 4.12 nmol/L (1:0.1)
[12] = Compound 1 123 + combination drug 12.3 nmol/L (1:0.1)
[13] = Compound 1 4.57 nmol/L + Etoposide 123 nmol/L, molar ratio 1:27
[14] = Compound 1 13.7 nmol/L + Etoposide 370 nmol/L, molar ratio 1:27
[15] = Compound 1 41.2 nmol/L + Etoposide 1110 nmol/L, molar ratio 1:27
[16] = Compound 1 13.7 + combination drug 111 nmol/L (1:8.1)
[17] = Compound 1 41.2 + combination drug 333 nmol/L (1:8.1)
[18] = Compound 1 123 + combination drug 1000 nmol/L (1:8.1)
[19] = Compound 1:combination drug molar ratio 1:8.1
[20] = Compound 1 4.57 + combination drug 37.0 nmol/L (1:8.1)
[21] = Compound 1 13.7 + combination drug 123 nmol/L (1:9)
[22] = Compound 1 41.2 + combination drug 370 nmol/L (1:9)
[23] = Compound 1 123 + combination drug 1110 nmol/L (1:9)
[24] = Compound 1 370 + combination drug 3330 nmol/L (1:9)
[25] = Compound 1 1110 + combination drug 10000 nmol/L (1:9)

Cc1nc(Nc2ncc(C(=O)Nc3c(C)cccc3Cl)s2)cc(N2CCN(CCO)CC2)n1 [Dasatinib]
CI (NCI-H358; [1]): 0.342
Fa (NCI-H358; [1]): 0.2486
CI (NCI-H358; [2]): 0.208
Fa (NCI-H358; [2]): 0.4351
CI (NCI-H358; [3]): 0.119
Fa (NCI-H358; [3]): 0.7042
CI (NCI-H358; [4]): 0.227
Fa (NCI-H358; [4]): 0.7700
CI (NCI-H358; [5]): 0.633
Fa (NCI-H358; [5]): 0.7795
CI (RT4; [6]): 0.804
Fa (RT4; [6]): 0.1983
CI (RT4; [7]): 0.356
Fa (RT4; [7]): 0.3708
CI (RT4; [1]): 0.147
Fa (RT4; [1]): 0.5917
CI (RT4; [2]): 0.207
Fa (RT4; [2]): 0.6714
CI (RT4; [3]): 0.096
Fa (RT4; [3]): 0.8271
CI (RT4; [4]): 0.192
Fa (RT4; [4]): 0.8517
CI (RT4; [5]): 0.229
Fa (RT4; [5]): 0.8974

COc1cc(OC)cc(N(CCNC(C)C)c2ccc3ncc(-c4cnn(C)c4)nc3c2)c1 [Erdafitinib]
CI (NCI-H358; [8]): 0.768
Fa (NCI-H358; [8]): 0.3851
CI (NCI-H358; [9]): 0.681
Fa (NCI-H358; [9]): 0.7532
Description (combinatory effect by CI) (NCI-H358; Compound 1:combination drug molar ratio 1:81): Synergy (0.3-0.7)
CI (RT4; [10]): 0.602
Fa (RT4; [10]): 0.3659
CI (RT4; [11]): 0.124
Fa (RT4; [11]): 0.6028
CI (RT4; [12]): 0.129
Fa (RT4; [12]): 0.6985

COc1cc([C@@H]2c3cc4c(cc3[C@@H](O[C@@H]3O[C@@H]5CO[C@@H](C)O[C@H]5[C@H](O)[C@H]3O)[C@H]3COC(=O)[C@H]23)OCO4)cc(OC)c1O [Etoposide]
CI (RT4; [13]): 0.460
Fa (RT4; [13]): 0.0637
CI (RT4; [14]): 0.373
Fa (RT4; [14]): 0.2820
CI (RT4; [15]): 0.432
Fa (RT4; [15]): 0.5945
Description (RT4; combination effect, Compound 1 + Etoposide, molar ratio 1:27): Synergy (0.3-0.7)

COc1cc2ncnc(Nc3ccc(F)c(Cl)c3)c2cc1OCCCN1CCOCC1 [Gefitinib]
CI (NCI-H358; [16]): 0.311
CI (NCI-H358; [17]): 0.370
CI (NCI-H358; [18]): 0.724
Description (combinatory effect by CI) (NCI-H358; [19]): Synergy (0.3-0.7)
CI (RT4; [16]): 0.205
CI (RT4; [17]): 0.352
CI (RT4; [18]): 0.445

C=CC(=O)Nc1cc(Nc2nccc(-c3cn(C)c4ccccc34)n2)c(OC)cc1N(C)CCN(C)C [Osimertinib]
CI (NCI-H358; [16]): 0.333
Fa (NCI-H358; [16]): 0.2157
CI (NCI-H358; [17]): 0.436
Fa (NCI-H358; [17]): 0.4242
CI (NCI-H358; [18]): 0.844
Fa (NCI-H358; [18]): 0.5579
Description (combinatory effect by CI) (NCI-H358; [19]): Synergy (0.3-0.7)
CI (RT4; [20]): 0.844
Fa (RT4; [20]): 0.2395
CI (RT4; [16]): 0.453
Fa (RT4; [16]): 0.4891
CI (RT4; [17]): 0.326
Fa (RT4; [17]): 0.7067
CI (RT4; [18]): 0.550
Fa (RT4; [18]): 0.7777
Description (combinatory effect by CI) (RT4; [19]): Synergy (0.3-0.7)

Cc1ccc(C(=O)Nc2ccc(CN3CCN(C)CC3)c(C(F)(F)F)c2)cc1C#Cc1cnc2cccnn12 [Ponatinib]
CI (NCI-H358): 0.794 and 0.463 and 0.639

CNC(=O)c1cc(Oc2ccc(NC(=O)Nc3ccc(Cl)c(C(F)(F)F)c3)c(F)c2)ccn1 [Regorafenib]
CI (RT4; [21]): 0.650
Fa (RT4; [21]): 0.1849
CI (RT4; [22]): 0.582
Fa (RT4; [22]): 0.3071
CI (RT4; [23]): 0.359
Fa (RT4; [23]): 0.5417
CI (RT4; [24]): 0.696
Fa (RT4; [24]): 0.6157
CI (RT4; [25]): 0.979
Fa (RT4; [25]): 0.7401
Description (combinatory effect by CI) (RT4; Compound 1:combination drug molar ratio 1:9): Synergy (0.3-0.7)

Source: US20230146795A1, “ENHANCEMENT OF ANTI-TUMOR ACTIVITY OF SHP2 INHIBITOR PYRIMIDINONE IN COMBINATION WITH NOVEL CANCER MEDICINES IN CANCERS” (TAIHO PHARMACEUTICAL CO., LTD., priority 2020, published 2023)
